Data from PMC6130714, “The α-amylase and α-glucosidase inhibitory activities of the dichloromethane extracts and constituents of Ferulago bracteata roots” (Pharmaceutical Biology, 2017).
In brackets after ≈: the same amount, converted by molar mass. Like-named read-outs stand apart in the source and are kept apart here.

Columns and labels:
α-amylase = experiment: α-Amylase inhibitory activity (starch, dinitrosalicylic acid); assay type: biochemical; settings: concentration 1 mg/mL
Procedure: α-Amylase inhibitory activity was established in accordance with the reported method (Nampoothiri et al. [2011]) with slight modifications. One percent starch solution (100 µL) in 20 mM sodium phosphate buffer (pH 6.9 with 6 mM sodium chloride) and sample solutions (100 µL) were incubated at 25 °C for 10 min in 24-well microplate. After incubation, 100 µL α-amylase solution (0.5 mg/mL) was added to each well and the reaction mixtures were incubated at 25 °C for 10 min. In order to stop the reaction after the incubation, dinitrosalicylic acid color reagent (200 µL) was added and then the microplate was incubated in a boiling water bath for 5 min and cooled at room temperature. 50 µL was taken from each well and then was added to 96-well microplate. The reaction mixture was diluted by adding 200 µL distilled water and absorbance was measured at 540 nm. Each assay for all samples was carried out in triplicate. Percentage inhibitions of all samples were calculated using the equation at following: Inhibition %=1-ΔAsample /ΔAcontrol×100
All results are expressed as mean ± SE and differences between means were statistically analyzed using one-way analysis of ANOVA followed by Bonferroni’s complementary analysis, with p < 0.05 considered to indicate statistical significance.

α-Glucosidase [1] = experiment: α-Glucosidase inhibitory activity (p-NPG substrate, 96-well plate); assay type: biochemical; settings: for α-Glucosidase inhibition (%): mean of three replicates
Procedure: α-Glucosidase inhibitory activity was established by using a 96-well microtiter plate in accordance with the described method (Tao et al. […] Samples were dissolved in dimethyl sulfoxide (DMSO) and all samples (20 µL) together with the enzyme solution (20 µL) were mixed in the plate. Afterwards, the substrate (40 µL) was added for initiation of the reaction and the mixture was incubated at 37 °C for 40 min. After incubation is complete, 0.2 M sodium carbonate (80 µL) in phosphate buffer (pH 6.8) was added to all wells in order to quench the reaction. The amount of released p-nitrophenol (pNP) was measured at 405 nm using a 96-well microplate reader. Each assay for all samples was carried out in triplicate. […] All results are expressed as mean ± SE and differences between means were statistically analyzed using one-way analysis of ANOVA followed by Bonferroni’s complementary analysis, with p < 0.05 considered to indicate statistical significance.

α-Glucosidase [2] = settings: cited from earlier work; for α-glucosidase inhibitory activity (in words): compared to acarbose, ref Luo et al. [2012]

SMILES | α-amylase inhibition (α-amylase) [%] | α-Glucosidase inhibition (%) (α-Glucosidase [1]; concentration 2000 µg/mL) | α-Glucosidase inhibition (%) (α-Glucosidase [1]; concentration 5000 µg/mL) | α-glucosidase inhibitory activity (in words) (α-Glucosidase [2]) | IC50 value (α-glucosidase) (α-Glucosidase [1]) [µg/mL] | times more effective than acarbose against α-glucosidase (α-Glucosidase [1]; ratio of IC50 values vs acarbose) [times] | α-Glucosidase inhibition (%) (α-Glucosidase [2]; at 1000 µg/mL, ref Shalaby et al. [2014]) | α-glucosidase IC50 value (α-Glucosidase [2]; at 0.5 mg/mL, ref Ayyasamy & Rajamanickam 2015) [µg/mL]
C[C@H]1O[C@H](O[C@H]2[C@H](O)[C@@H](O)[C@@H](O[C@H]3[C@H](O)[C@@H](O)C(O)O[C@@H]3CO)O[C@@H]2CO)[C@H](O)[C@@H](O)[C@@H]1N[C@H]1C=C(CO)[C@@H](O)[C@H](O)[C@H]1O (some centres unmarked) [Acarbose, acarbose, reference compound] | 82.28 | 29.43 ± 1.71 | 50.81 ± 2.51 | – | – | – | – | –
COc1c2ccoc2cc2oc(=O)ccc12 [Bergapten, bergapten] | – | 39.71 ± 2.44 | 42.26 ± 0.43 | too low to compare to that of acarbose | 6120 (≈ 28.3 mM) | – | – | –
CC(C)(OC(=O)c1ccccc1)[C@@H]1Cc2cc3ccc(=O)oc3cc2O1 [Felamidin, felamidin] | – | 64.93 ± 2.06 | 94.57 ± 0.05 | – | 420 (≈ 1.2 mM) | 11 | – | –
CC(C)=CC(=O)OC(Cc1cc2ccc(=O)oc2cc1O)C(C)(C)O (centres unmarked) [Grandivitinol, grandivitinol] | – | 7.84 ± 0.71 | 12.30 ± 0.36 | – | 20010 (≈ 57.8 mM) | – | – | –
CC(C)=CCOc1c2occc2cc2ccc(=O)oc12 [Imperatorin, imperatorin] | – | 63.07 ± 0.69 | 88.97 ± 0.88 | too low to compare to that of acarbose | 1230 (≈ 4.55 mM) | – | 69.66 ± 3.67 | –
COc1ccc2ccc(=O)oc2c1CC=C(C)C [Osthole, osthole] | – | 84.31 ± 1.72 | 93.31 ± 0.29 | – | 950 (≈ 3.89 mM) | – | – | –
CC(C)(O)C(Cc1cc2ccc(=O)oc2cc1O)OC(=O)c1ccccc1 (centres unmarked) [Peucedanol-2'-benzoate, peucedanol-2′-benzoate] | – | 66.86 ± 0.37 | 77.22 ± 0.44 | – | – | – | – | –
CC(C)=CC(=O)OC(C)(C)C1Cc2cc3ccc(=O)oc3cc2O1 (centres unmarked) [Prantschimgin, prantschimgin] | – | 51.95 ± 0.01 | 68.23 ± 0.39 | – | 1860 (≈ 5.66 mM) | – | – | –
COc1cc2oc(=O)ccc2cc1CC=C(C)C [Suberosin, suberosin] | – | 81.58 ± 1.15 | 87.95 ± 1.07 | – | 890 (≈ 3.64 mM) | – | – | –
O=c1ccc2ccc(O)cc2o1 [Umbelliferone, umbelliferone] | – | 8.84 ± 0.02 | 10.27 ± 0.49 | – | 9320 (≈ 57.5 mM) | – | – | 547
COc1c2occc2cc2ccc(=O)oc12 [Xanthotoxin, xanthotoxin] | – | 37.95 ± 8.64 | 45.76 ± 4.82 | too low to compare to that of acarbose | 5380 (≈ 24.9 mM) | – | – | –
